Measurements reported in ChEMBL document CHEMBL1158891, “Chemical and biological investigation of the fungus Pulveroboletus ravenelii” (J Nat Prod, 2003).
In brackets after ≈: the same amount, converted by molar mass.

Experiments:
[1] = Inhibition of 7,12-dimethylbenz[a]anthracene-induced preneoplastic lesions in BALB/c mouse mammary gland culture after 1 to 10 days; assay type: functional, tissue-based
[2] = biological target: Prostaglandin G/H synthase 1 (Homo sapiens, UniProt P23219); test: Inhibition of COX1
Prostaglandin G/H synthase 1, sequence (P23219 whole entry): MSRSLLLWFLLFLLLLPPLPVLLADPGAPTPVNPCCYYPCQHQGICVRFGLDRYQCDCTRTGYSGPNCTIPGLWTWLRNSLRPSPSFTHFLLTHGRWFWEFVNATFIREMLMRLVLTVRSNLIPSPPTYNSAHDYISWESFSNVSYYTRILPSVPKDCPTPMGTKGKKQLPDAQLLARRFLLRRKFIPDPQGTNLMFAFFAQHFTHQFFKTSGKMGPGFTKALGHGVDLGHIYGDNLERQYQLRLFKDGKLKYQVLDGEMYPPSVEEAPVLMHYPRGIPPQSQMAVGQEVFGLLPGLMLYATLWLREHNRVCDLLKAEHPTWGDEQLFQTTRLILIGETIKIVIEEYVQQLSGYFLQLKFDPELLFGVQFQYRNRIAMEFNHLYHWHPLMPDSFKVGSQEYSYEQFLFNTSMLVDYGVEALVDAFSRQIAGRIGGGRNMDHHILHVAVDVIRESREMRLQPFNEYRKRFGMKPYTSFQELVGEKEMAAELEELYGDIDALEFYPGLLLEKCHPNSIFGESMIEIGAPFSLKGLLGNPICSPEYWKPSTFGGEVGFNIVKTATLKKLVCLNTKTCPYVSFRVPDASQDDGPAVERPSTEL

[3] = biological target: T1, Prostaglandin G/H synthase 2 (Homo sapiens, UniProt P35354); test: Inhibition of COX2
T1 sequence (P35354 whole entry): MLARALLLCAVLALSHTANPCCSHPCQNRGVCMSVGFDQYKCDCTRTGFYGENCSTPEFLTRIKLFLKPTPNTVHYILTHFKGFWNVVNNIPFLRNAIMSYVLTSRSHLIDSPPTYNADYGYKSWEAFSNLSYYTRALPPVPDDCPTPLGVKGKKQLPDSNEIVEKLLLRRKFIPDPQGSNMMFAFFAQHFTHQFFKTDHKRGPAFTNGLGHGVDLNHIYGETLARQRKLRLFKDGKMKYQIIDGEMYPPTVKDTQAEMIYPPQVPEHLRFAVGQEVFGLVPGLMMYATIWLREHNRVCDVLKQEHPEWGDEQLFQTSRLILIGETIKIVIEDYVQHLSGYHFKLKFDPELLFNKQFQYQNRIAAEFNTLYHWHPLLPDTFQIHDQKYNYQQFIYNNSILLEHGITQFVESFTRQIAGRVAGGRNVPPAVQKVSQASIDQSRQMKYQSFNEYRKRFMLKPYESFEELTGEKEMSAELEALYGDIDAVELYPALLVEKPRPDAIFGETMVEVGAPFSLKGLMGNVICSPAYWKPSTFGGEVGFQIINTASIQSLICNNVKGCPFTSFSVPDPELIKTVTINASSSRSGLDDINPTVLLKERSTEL

Staphylococcus aureus = test: Antimicrobial activity against Staphylococcus aureus; assay type: functional, organism-based

COC(=O)[C@@H](c1ccccc1)[C@@H](C1=C(O)/C(=C/c2ccccc2)OC1=O)c1ccccc1 [PULVERAVEN A]
IC50 [1]: 6 µg/mL (≈ 14.1 µM)

COC(=O)[C@@H](c1ccccc1)[C@H](C1=C(O)/C(=C/c2ccccc2)OC1=O)c1ccccc1 [PULVERAVEN B]
IC50 [1]: 0.8 µg/mL (≈ 1.88 µM)
IC50 [2]: > 234 µM
IC50 [3]: > 234 µM

COC(=O)/C(=C1/OC(=O)C(c2ccccc2)=C1O)c1ccccc1 [VULPINIC ACID]
IC50 [1]: > 10 µg/mL
IC50 [2]: 676 µM
IC50 (Staphylococcus aureus): 20 µg/mL (≈ 62.1 µM)
